Active and inactive are the calls of the source. No cut-off for these calls is given here.
Legend:
[1] = Binding affinity to synthetic d(5'-GCGAGTACTCGC-3') DNA sequence assessed as change in heat by ITC assay
[2] = Binding affinity to synthetic d(5'-GCGACTAGTCGC-3') DNA sequence assessed as change in heat by ITC assay
[3] = Binding affinity to synthetic d(CGACTAGTCG)2 DNA sequence by NMR analysis

Activity [1]	Activity [2]	Activity [3]	SMILES
inactive	inactive	–	CC(C)c1sc(NC(=O)CCCN(C)C)nc1C(=O)Nc1cc(C(=O)Nc2cc(C(N)=O)n(C)c2)n(C)c1
–	–	Active	CC(C)c1sc(NC(=O)c2cc(NC(=O)c3cc(NC=O)cn3C)cn2C)nc1C(=O)NCCCN(C)C
